Source: patent US11576913B2 (priority 2018, dated 2023)

What was measured:
[1] = tested on: subjects suffering from the Insomnia Disorder adult insomnia; assay: Polysomnography crossover study of sleep parameters (SE, TST, WASO, LPS, Stage N2); format: in vivo, human; conditions: for Latency to Persistent Sleep (LPS) Least Squares Means (STDE) / Sleep Efficiency (SE) Least Squares Means (STDE) / Time Spent in Sleep Stage N2 Least Squares Means (STDE) / Total Sleep Time (TST) Least Squares Means (STDE) / Wake after Sleep Onset (WASO) Least Squares Means (STDE): average of Night 1 and Night 2, full analysis population; for WASO, decrease in the difference of LSMs: stated as decrease
Procedure: The study randomized up to about 30 subjects to achieve at least about 24 completers (i.e., subjects who completed all 5 Dosing Periods). The subjects included otherwise healthy males and females aged 18 to 64 years, inclusive, with a history of adult insomnia (insomnia disorder as defined by DSM-5 criteria) and who otherwise had no significant medical or psychiatric history.
Compound (1C) was administered orally in an immediate release tablet comprising the pharmaceutically acceptable excipients croscarmellose sodium (FMC Health and Nutrition, Philadelphia, Pa.), hydroxypropylcellulose (Ashland Inc., Covington, Ky.), microcrystalline cellulose (Sigma-Aldrich, St. Louis, Mo.), and mannitol (SPI Pharma, Wilmington, Del.). […] Placebo tablets matching the Compound (1C) tablets were orally administered in the same way. The placebo tablets comprised the four above-described pharmaceutically acceptable excipients but with no Compound (1C).
During a baseline visit (Days −7 to −6), successful subjects arrived at a clinical unit in the afternoon or evening of Day −7. At that time, they began a stay of two consecutive nights during which each subject underwent continuous PSG recording for eight hours on the first night (Night 1) to assess eligibility criteria and to screen out subjects with sleep apnea or periodic limb movements with arousal. Still-successful subjects underwent another eight hours of continuous PSG recording on the second night (Night 2), which determined if a subject met the sleep-eligibility criteria based on the average of data obtained on Nights 1 and 2 of the baseline visit. During the baseline visit, subjects also practiced and took a post-sleep test used in this study, i.e., the digit symbol substitution test (“DSST”), and familiarized themselves with the Karolinska Sleepiness Scale (“KSS”) evaluation form. To assess a subject's perception of the “quality” and “quantity” of sleep, a post-sleep questionnaire was used to ask questions such as “how many minutes did it take you to fall asleep last night after you got into bed and the lights were turned off?”, “how many times did you awaken during the night?”, and “on a scale from 1 to 10, with 1 being poor and 10 being excellent, how would you rate the quality of your sleep last night?”. Subjects who met all eligibility criteria after the baseline visit returned approximately seven days later to enter the treatment period (Dosing Periods 1-5).
A summary of the PSG recording procedure that was used is as follows. Standard placements for EEG electrodes were derived according to the international 10-20 system (see, e.g., Jasper, “The ten-twenty electrode system of the international federation,” Electroencephalography Clin. Neurophys. 10:371-375 (1958)) with the exception of the change of the A1-A2 labels to M1-M2, pursuant to the AASM Manual for Scoring of Sleep (Berry et al., “The AASM Manual for the Scoring of Sleep and Associated Events: Rules, Terminology and Technical Specifications,” Version 2.0.3, American Academy of Sleep Medicine, Darien, Ill., (2014)). This system requires that electrodes be positioned in measured relationships to landmark anatomical points. Standard placements for EOG, submental EMG electrodes, anterior tibialis EMG electrodes, and airflow sensors were consistent with the AASM Manual for Scoring of Sleep.
(2) The 27-day treatment period included five dosing periods (Dosing Periods 1-5) that were at least 5 days apart. Once continued eligibility was confirmed, subjects were randomized as to treatment upon check-in on Day 1. […] The time subjects spent in bed in an undisturbed environment was fixed at 8 hours (i.e., 960 PSG epochs of 30 seconds duration per epoch).
Following the evening-time dosing with study drug, subjects underwent eight hours of continuous PSG recording. […]

[2] = tested on: healthy subjects and subjects with insomnia; format: in vivo, human
Procedure: The highest doses tested in healthy subjects were for a 30-mg single dose and a 10-mg multiple dose (once daily nighttime dose for 14 days). The highest dose tested in subjects with insomnia was 10 mg.
The most frequent treatment-emergent adverse event (TEAEs) experienced by subjects was somnolence.

[3] = all treatment groups (0.5, 1.0, 3.0, 6.0 mg)

O=C(O)c1nc2ccccc2n([C@H]2C[C@H]3CCC[C@@H](C2)N3C2CC3CCCC(C3)C2)c1=O (some centres unmarked) [Compound (1C)]
Latency to Persistent Sleep (LPS) Least Squares Means (STDE) ([1]; 0.5 mg oral): −25.9 (2.78) min | Sleep Efficiency (SE) Least Squares Means (STDE) ([1]; 0.5 mg oral): 12.1 (1.02) % | Time Spent in Sleep Stage N2 Least Squares Means (STDE) ([1]; 0.5 mg oral): 57.1 (5.53) min | Total Sleep Time (TST) Least Squares Means (STDE) ([1]; 0.5 mg oral): 57.9 (4.88) min | Wake after Sleep Onset (WASO) Least Squares Means (STDE) ([1]; 0.5 mg oral): −37.1 (4.54) min | Latency to Persistent Sleep (LPS) Difference of Least Squares Means vs. Placebo ([1]; 0.5 mg vs. Placebo): 2.6 min | Sleep Efficiency (SE) Difference of Least Squares Means vs. Placebo ([1]; 0.5 mg vs. Placebo): 4.1% | Time Spent in Sleep Stage N2 Difference of Least Squares Means vs. Placebo ([1]; 0.5 mg vs. Placebo): 33.6 min | Total Sleep Time (TST) Difference of Least Squares Means vs. Placebo ([1]; 0.5 mg vs. Placebo): 19.8 min | Wake after Sleep Onset (WASO) Difference of Least Squares Means vs. Placebo ([1]; 0.5 mg vs. Placebo): -24.3 min | WASO, decrease in the difference of LSMs ([1]; 0.5 mg vs. placebo): 24.3 min | Latency to Persistent Sleep (LPS) Least Squares Means (STDE) ([1]; 1.0 mg oral): −29.9 (2.78) min | Sleep Efficiency (SE) Least Squares Means (STDE) ([1]; 1.0 mg oral): 14.7 (1.02) % | Time Spent in Sleep Stage N2 Least Squares Means (STDE) ([1]; 1.0 mg oral): 69.2 (5.53) min | Total Sleep Time (TST) Least Squares Means (STDE) ([1]; 1.0 mg oral): 70.3 (4.88) min | Wake after Sleep Onset (WASO) Least Squares Means (STDE) ([1]; 1.0 mg oral): −44.5 (4.54) min | Latency to Persistent Sleep (LPS) Difference of Least Squares Means vs. Placebo ([1]; 1.0 mg vs. Placebo): -1.4 min | Sleep Efficiency (SE) Difference of Least Squares Means vs. Placebo ([1]; 1.0 mg vs. Placebo): 6.7% | Time Spent in Sleep Stage N2 Difference of Least Squares Means vs. Placebo ([1]; 1.0 mg vs. Placebo): 45.7 min | Total Sleep Time (TST) Difference of Least Squares Means vs. Placebo ([1]; 1.0 mg vs. Placebo): 32.3 min | Wake after Sleep Onset (WASO) Difference of Least Squares Means vs. Placebo ([1]; 1.0 mg vs. Placebo): -31.8 min | WASO, decrease in the difference of LSMs ([1]; 1.0 mg vs. placebo): 31.8 min | Latency to Persistent Sleep (LPS) Least Squares Means (STDE) ([1]; 3.0 mg oral): −29.0 (2.82) min | Sleep Efficiency (SE) Least Squares Means (STDE) ([1]; 3.0 mg oral): 17.6 (1.03) % | Time Spent in Sleep Stage N2 Least Squares Means (STDE) ([1]; 3.0 mg oral): 132.1 (5.6) min | Total Sleep Time (TST) Least Squares Means (STDE) ([1]; 3.0 mg oral): 84.5 (4.96) min | Wake after Sleep Onset (WASO) Least Squares Means (STDE) ([1]; 3.0 mg oral): −59.1 (4.60) min | Latency to Persistent Sleep (LPS) Difference of Least Squares Means vs. Placebo ([1]; 3.0 mg vs. Placebo): -0.5 min | Sleep Efficiency (SE) Difference of Least Squares Means vs. Placebo ([1]; 3.0 mg vs. Placebo): 9.7% | Time Spent in Sleep Stage N2 Difference of Least Squares Means vs. Placebo ([1]; 3.0 mg vs. Placebo): 108.5 min | Total Sleep Time (TST) Difference of Least Squares Means vs. Placebo ([1]; 3.0 mg vs. Placebo): 46.4 min | Wake after Sleep Onset (WASO) Difference of Least Squares Means vs. Placebo ([1]; 3.0 mg vs. Placebo): -46.4 min | WASO, decrease in the difference of LSMs ([1]; 3.0 mg vs. placebo): 46.4 min | Latency to Persistent Sleep (LPS) Least Squares Means (STDE) ([1]; 6.0 mg oral): −31.7 (2.78) min | Sleep Efficiency (SE) Least Squares Means (STDE) ([1]; 6.0 mg oral): 19.0 (1.02) % | Time Spent in Sleep Stage N2 Least Squares Means (STDE) ([1]; 6.0 mg oral): 146.3 (5.5) min | Total Sleep Time (TST) Least Squares Means (STDE) ([1]; 6.0 mg oral): 91.0 (4.88) min | Wake after Sleep Onset (WASO) Least Squares Means (STDE) ([1]; 6.0 mg oral): −63.5 (4.54) min | Latency to Persistent Sleep (LPS) Difference of Least Squares Means vs. Placebo ([1]; 6.0 mg vs. Placebo): -3.2 min | Sleep Efficiency (SE) Difference of Least Squares Means vs. Placebo ([1]; 6.0 mg vs. Placebo): 11.0% | Time Spent in Sleep Stage N2 Difference of Least Squares Means vs. Placebo ([1]; 6.0 mg vs. Placebo): 122.8 min | Total Sleep Time (TST) Difference of Least Squares Means vs. Placebo ([1]; 6.0 mg vs. Placebo): 52.9 min | Wake after Sleep Onset (WASO) Difference of Least Squares Means vs. Placebo ([1]; 6.0 mg vs. Placebo): -50.8 min | WASO, decrease in the difference of LSMs ([1]; 6.0 mg vs. placebo): 50.8 min | Sleep Efficiency vs placebo [1, 3]: significantly increased | Total Sleep Time vs placebo [1, 3]: significantly increased | Wake after Sleep Onset vs placebo [1, 3]: significantly decreased | amount of time spent in sleep Stage N2 vs placebo [1, 3]: significantly increased | Latency to Persistent Sleep vs placebo ([1]; any of the treatment groups (0.5, 1.0, 3.0, 6.0 mg)): not significantly different | tolerability ([2]; 6 mg, nighttime dosing, healthy subjects and those with insomnia): well tolerated | safety and tolerability ([2]; across all tested dose levels): safe and well tolerated | serious adverse events (SAEs) ([2]; across all tested dose levels): no serious adverse events | most frequent treatment-emergent adverse event ([2]; completed clinical studies): somnolence | vital signs and electrocardiograms (ECGs) ([2]; completed clinical studies): no clinically significant findings | next day residual effects ([2]; dose equal or lower than 2 mg, after 8 hours post dosing): dose-dependent and generally decreased (back to placebo levels) | laboratory findings ([2]; including crystalluria or hematuria): No concerning laboratory findings
